Legend:
[1] = tested on: cephalosporin C amidohydrolase; assay: Enzyme activity assay, B965 whole cells (7ACA production); format: biochemical, Pseudomonas vesicularis B965
Experimental: (§1) Substrate buffer consists of 50 mM sodium phosphate buffer pH 7.0 containing 13.5 mg/ml cloxacillin and GL-7CA (3 mg/ml) or cephalosporin C (10 mg/ml). Cell suspensions or semi-purifed enzyme samples were incubated in substrate buffer for up to 24 hours at 37° C. At a suitable time a 100 μl aliquot of fluram reagent was then added, mixed and the sample incubated at room temperture for 1 hour. Fluram reagent consists of fluroescamine (Sigma Chemical Co) at 1 mg/ml in dry acetone. The presence of 7ACA in the reaction mix was detected after derivatisation of the free primary amine group by using fluorescence spectroscopy at an excitation wave length of 378 nm and emission detection at 498 nm in a flow injection assay system with 10% acetone in water as carrier fluid.
(§2) The enzyme reaction mix was derivatised as above a 20 μl sample applied in a mobile phase consisting of 35% acetonitrile, 0.1% trifluoroacetic acid in HPLC-grade water onto a 15 cm Hypersil ODS 5μ column at 32° C. with a flow rte of 1.5 ml/min. Detection by fluorescence spectroscopy was as above. In this system authentic 7ACA standard has a retention time of 6.7 minutes, with a minor degradation peak at
In typical experiments using these conditions B965 cells sufficient to fill a 10 μl inoculating loop produced 320 μg/ml 7ACA in 18 hours incubation GL-7ACA as substrate. […]

[2] = tested on: cephalosporin C amidohydrolase; assay: Enzyme activity assay, partially purified amidohydrolase recovered from B965; format: biochemical, Pseudomonas vesicularis B965
Experimental: as §1, with “Cell” for “Substrate buffer consists of 50 mM sodium phosphate buffer pH 7.0 containing 13.5 mg/ml cloxacillin and GL-7CA (3 mg/ml) or cephalosporin C (10 mg/ml). Cell”
B965 cells were cultured on TSB agar plates essentially by the method of preparation 1(b). The cells were harvested into enzyme buffer, washed and finally resuspended in 10 ml chilled enzyme buffer. Enzyme buffer is 100 mM sodium phosphate buffer (pH 7.0) containing 1 mM DTT and 1 mM benzamidine. The cells were lysed by sonication using a 650W output sonicator (model W-380, Heat System Ultrasonics Inc, 1938 New Highway, Farmingdale, N.Y. 11735, USA) on power settings 2-3, 50% cycle, for 12 , minutes . The extract was clarifed by centrifugation at 18,000 g for 15 minutes at 4° C. The supernatant was recovered, adjusted to 10 ml volume in enzyme buffer, then solid ammonium sulphate was added slowly with gentle mixing at 4° C. to 30% saturation. […]

[3] = tested on: cephalosporin C amidohydrolase; assay: Cephalosporin C amidohydrolase enzyme properties, kinetic; format: biochemical, Pseudomonas vesicularis B965
Experimental: as §1
Further purification of the amidohydrolase was undertaken using an FPLC system (Pharmacia LKB Biotechnology, S-751 82 Uppsala, Sweden) in order to define the properties of the enzyme.
Material recovered from the 30-60% saturation ammonium sulphate precipitate was resuspended in MOPS buffer (10 mM MOPS pH8.0, 1 mM benzamidine). The solution was clarified by brief centrifugation followed by filration through a 0.2 micron filter. A 5 ml aliquot of enzyme mixture was applied to an HR5/5 MonoQ column pre-equilibrated with MOPS buffer. Amidohydrolase activity was recovered in the eluate between 2-4 after loading. This fraction was adjusted to 30% saturation in ammonium sulphate and loaded to an HR10/30 phenylsuperose column. Elution of protein was achieved using a salt gradient regime varying from 30%-0% saturation in ammonium sulphate with a running buffer consisting of 100 mM sodium phosphate pH7.0, 1 mM DTT. Amidohydrolase activity was recovered at between 18.5%-15.0% saturation of ammonium sulphate under these conditions.

[4] = tested on: cephalosporin C amidohydrolase; assay: Substrate comparison, assay response by HPLC, enzyme from NM522/pVS44 cells; format: biochemical, Pseudomonas vesicularis
Experimental: as §2
(a) Assay response is given as product yield standardised to the 7ACA produced from GL-7ACA under equivalen reaction conditions. For this comparison it is assumed that products have molar extinction coefficients equivalent to 7ACA, such that the response was calculated directly from product peak area on HPLC. The standard reaction used 100 μl enzyme prepared by the procedure of preparation of 2(d) from NM522/p/VS44 cells, with 10 mg/ml substrate in overnight reaction at 27° C.
(b) Assay response obtained using 10 μl of above enzyme extract, with 3 mg/ml substrate in 2 hour reaction at 27° C. The actual response was then extrapolated to equivalent conditions to those used with the more slowly hydrolysed substrates.

[5] = tested on: cephalosporin C amidohydrolase; assay: Enzyme activity assay, E. coli B1113 extract after DE52 cellulose; format: biochemical, Pseudomonas vesicularis; conditions: extract 50
Experimental: as §1
E. coli B1113 was grown on TSB agar plates following the method of preparation 1(b). The confluent cell growth was processed for amidohydrolase recovery essentially following the procedure of preparation 1(d) to the cell-free extract stage.
Amidohydrolase activity was further purified by application of the cell-free extract to a DE52 cellulose column (Whatman Ltd, Maidstone, Kent ME14 2ME). The majority of proteins in the extract bind to the matrix and amidohydrolase activity is not retained. […]

[6] = tested on: cephalosporin C amidohydrolase; assay: Enzyme activity assay, NM522/pVS44 extract after DE52 cellulose; format: biochemical, Pseudomonas vesicularis; conditions: 10 μl extract; 50 mg/ml cephalosporin C; 3 hour incubation at 27° C.
Experimental: as §1
Cephalosporin C amidohydrolase enzyme activity was recovered from NM522/pVS44 cells using procedures of preparation 1(b) and 1(c) to the cell free extract stage followed by chromatography on DE52 cellulose as described above. In a typical assay using the method of preparation 1(c), a 10 μl extract produced 12 μg/ml 7ACA from 50 mg/ml cephalosporin C in a 3 hour incubation at 27° C. This represents approximately 30-fold improvement over the level of activity obtained using B1113 strain extract aat an equivalent stage of purification.

[7] = tested on: Immobilised amidohydrolase; assay: Immobilised amidohydrolase activity (pH stat, DMAB assay); format: biochemical, Pseudomonas vesicularis; conditions: for Activity μmole 7ACA/min/g dry weight immobilised enzyme / Activity μmole/min/g wet weight immobilised enzyme: 50 mg/ml substrate in water, 25° C., pH 8.0
Experimental: E. coli strain NM522/pVS 44 was grown on TSB medium supplemented with 10 μg/ml choramphenicol and solidified with 1.5% w/v agar. Growth was for 2-4 days at 27.5° C. Cell paste was recovered by scraping from the agar surface, resuspended and washed in lysis buff (10 mM MOPS pH 8.0; 1 mM DTT; 1 mM benzamidine). About 65 g cell paste was lysed in 350 ml ice cold buffer by sonication (650W output, power setting 4, 5 passes through a continuous flow head at 35 ml/min flow, sample chilled on ice). The lysate was clarified by centrifugation (15,000 rpm, 30 min) to yield 3120 mg soluble protein. This material was passed over a 300 ml column of pre-equlibrated DE52 cellulose. Fractions eluting between 100 ml-500 ml after loading contained amidohydrolase activity in a total of 398 mg protein. The protein was concentrated using a centrifugal membrance device (Centriprep 30 concentrator, Amicon).
The concentrated extract (300 mg protein, 12.54 ml) was adjusted to 100 mM phosphate buffer pH 8.0:1 mM DTT; 1 mM benzamidine, and mixed with 3.0 g (dry weight) oxirane-linked polyacrylic matrix (Eupergit C: Rohm Pharma GmbH, D-6100 Darmstadt Germany). Immobilisation, monitored by protein removal from the liquid phase, was complete by 116 hours. About 120 mg protein became covalently linked to the support. Excess protein was removed by washing in the phosphate buffer.
Immobilised amidohydrolase activity was monitored by allowing the enzyme catalysed reaction to occur using an automated control system set to detect and maintain the reaction pH at a set point (a pH stat system). A pH monitor was set such that a fall in pH from the set point triggered a peristaltic pump to allow regulated dosing of alkali titrant.
A reaction volume of 50 ml contained 50 mg/ml substrate (GL-7ACA or Ceph C) in water maintained at 25° C. The reaction mix was adjusted to pH 8.0 using 2M NaOH as titrant before addition of about 3 g dry weight (12 g wet weight) immobilised enzyme to initate the reaction. The suspension was stirred using an overhead paddle type stirrer. Reaction progress was monitored by titrant addition rate and sampling at intervals. The samples were assayed for 7ACA by the DMAB method as in preparation 1(a). By this method the following activities were measured. (Table 8.)

[8] = tested on: gram-negative microorganisms; conditions: against gram-negative microorganisms; cited from earlier work
[9] = 100 μl enzyme from NM522/pVS44 cells, 10 mg/ml substrate, overnight reaction at 27° C., standardised to 7ACA produced from GL-7ACA

Structure (SMILES): CC(=O)OCC1=C(C(=O)O)N2C(=O)[C@@H](NC(=O)CCC[C@@H](N)C(=O)O)[C@H]2SC1 [Ceph C, cephalosporin C]
- 7 ACA Produced ([1]; double the volume of B965 cells, cephalosporin C as substrate, overnight incubation): 5 µg/mL
- 7 ACA Produced ([2]; extract 80 μl, Ceph C 50 mg/ml, 8 hr): 14.5 µg/mL
- Specific activity maximum ([3]; using Ceph C substrate): 0.141 μmol 7ACA/min/mg enzyme
- Assay response (% rate of 7ACA) [4, 9]: 8.0%
- 7 ACA Produced ([5]; Ceph C 10 mg/ml, 4 hr): 4.5 µg/mL
- 7 ACA Produced [6]: 12 µg/mL
- Activity μmole 7ACA/min/g dry weight immobilised enzyme [7]: 0.95 μmole 7ACA/min/g dry weight im
- Activity μmole/min/g wet weight immobilised enzyme [7]: 0.24 μmole/min/g wet weight immobil
- maximum conversion ([7]; cephalosporin C substrate, 22 hours, immobilised enzyme): 1.7%
- activity as an antibiotic [8]: some activity

Structure (SMILES): CC(=O)OCC1=C(C(=O)O)N2C(=O)[C@@H](NC(=O)CCCC(=O)O)[C@H]2SC1 [GL-7ACA, 7-β-(4-carboxybutanamido)-cephalosporanic acid]
- 7 ACA Produced ([1]; B965 cells filling a 10 μl inoculating loop, GL-7ACA as substrate, 18 hours incubation): 320 µg/mL
- 7 ACA Produced ([2]; extract 10 μl, GL-7ACA 2 mg/ml, 4 hr): 22 µg/mL
- Km ([3]; GL-7ACA substrate at 1.2-7.2 mM): 2000 to 4000 µM
- Assay response (% rate of 7ACA) ([4]; 10 μl enzyme extract, 3 mg/ml substrate, 2 hour reaction at 27° C., extrapolated to equivalent conditions (reference = 100)): 100%
- 7 ACA Produced ([5]; GL-7ACA 3 mg/ml, 3 hr): 102 µg/mL
- Activity μmole 7ACA/min/g dry weight immobilised enzyme [7]: 4.7 μmole 7ACA/min/g dry weight im
- Activity μmole/min/g wet weight immobilised enzyme [7]: 1.2 μmole/min/g wet weight immobil
- conversion achieved ([7]; GL-7ACA as substrate, immobilised enzyme): 9.0%

Structure (SMILES): N.N.O=S(=O)(O)O [ammonium sulphate]
- Inhibitors (inhibitory concentration) [3]: > 6 % w/v

Structure (SMILES): CC(=O)OCC1=C(C(=O)O)N2C(=O)[C@@H](NC(=O)CCCC(NC(=O)c3ccccc3)C(=O)O)[C@H]2SC1 (some centres unmarked) [benzoylcephalosporin C]
- Assay response (% rate of 7ACA) [4, 9]: 2.8%

Structure (SMILES): O=C(CCCC(NC(=O)c1ccccc1)C(=O)O)N[C@@H]1C(=O)N2C(C(=O)[O-])=C(C[n+]3ccccc3)CS[C@H]12 (some centres unmarked) [benzoylcephalosporin-3-pyridiniummethyl]
- Assay response (% rate of 7ACA) [4, 9]: 3.5%

Structure (SMILES): N[C@H](CCCC(=O)N[C@@H]1C(=O)N2C(C(=O)O)=C(CO)CS[C@H]12)C(=O)O [deacetylcephalosporin C]
- Assay response (% rate of 7ACA) [4, 9]: 9.8%

Structure (SMILES): CC(=O)OCC1=C(C(=O)O)N2C(=O)[C@@H](NC(=O)CCC(=O)O)[C@H]2SC1 [succinyl-7ACA]
- Assay response (% rate of 7ACA) [4, 9]: 0.8%

From US6297032A, “Recombinant cephalosporin C amidohydrolase in cephalosporin biosynthesis” (Glaxo Group Limited, priority 1994, dated 2001)
